Test results as given in PMC8882856, “The affinity and selectivity of α‐adrenoceptor antagonists, antidepressants and antipsychotics for the human α2A, α2B, and α2C‐adrenoceptors and comparison with human α1 and β‐adrenoceptors” (Pharmacology Research & Perspectives, 2022).
Like-named read-outs stand apart in the source and are kept apart here. Values belong to the compound of their own block, whether it stands above or below them.

How the values were obtained:
human α2A‐adrenoceptor = biological target: T1, human α2A‐adrenoceptor (Homo sapiens, UniProt P08913); experiment: ^3H‐rauwolscine whole cell competition binding, CHO‐α2A cells
T1 sequence (P08913 1-465): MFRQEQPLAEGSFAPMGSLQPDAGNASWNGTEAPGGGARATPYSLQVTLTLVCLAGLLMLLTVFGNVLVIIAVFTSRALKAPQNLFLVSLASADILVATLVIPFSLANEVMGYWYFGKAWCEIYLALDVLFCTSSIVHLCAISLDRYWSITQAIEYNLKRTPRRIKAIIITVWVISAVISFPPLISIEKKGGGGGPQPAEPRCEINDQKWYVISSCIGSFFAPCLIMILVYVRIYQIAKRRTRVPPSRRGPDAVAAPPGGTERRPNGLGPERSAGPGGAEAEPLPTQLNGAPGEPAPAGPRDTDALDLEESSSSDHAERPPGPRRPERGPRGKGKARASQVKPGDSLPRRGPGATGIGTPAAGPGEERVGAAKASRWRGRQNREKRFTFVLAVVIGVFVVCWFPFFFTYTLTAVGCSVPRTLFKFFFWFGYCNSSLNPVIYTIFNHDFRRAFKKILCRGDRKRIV

human β2‐adrenoceptor = human β2‐adrenoceptor (Homo sapiens, UniProt P07550); assay type: binding; conditions: for IC50 (log) β2: printed as log IC50 bound (negative) in the Log KD β2 column, 3H-CGP12177
human α2C‐adrenoceptor = biological target: T2, human α2C‐adrenoceptor (Homo sapiens, UniProt P18825); experiment: ^3H‐rauwolscine whole cell competition binding, CHO‐α2C cells
T2 sequence (P18825 1-462): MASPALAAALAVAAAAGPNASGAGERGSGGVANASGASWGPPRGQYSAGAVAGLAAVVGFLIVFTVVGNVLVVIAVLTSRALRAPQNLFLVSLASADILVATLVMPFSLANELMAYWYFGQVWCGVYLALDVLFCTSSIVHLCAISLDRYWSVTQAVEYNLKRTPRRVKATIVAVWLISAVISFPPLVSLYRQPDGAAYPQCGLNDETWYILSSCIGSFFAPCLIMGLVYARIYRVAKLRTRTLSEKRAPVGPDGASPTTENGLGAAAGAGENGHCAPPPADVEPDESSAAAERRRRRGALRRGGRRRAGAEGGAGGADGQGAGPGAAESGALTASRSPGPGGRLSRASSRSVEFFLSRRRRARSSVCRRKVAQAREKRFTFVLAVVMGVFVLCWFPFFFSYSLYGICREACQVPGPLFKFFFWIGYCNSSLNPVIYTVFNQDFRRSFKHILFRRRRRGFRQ

human β1‐adrenoceptor = human β1‐adrenoceptor (Homo sapiens, UniProt P08588); conditions: for IC50 (log) β1: printed as log IC50 bound (negative) in the Log KD β1 column, 3H-CGP12177
human α2B‐adrenoceptor = biological target: T3, human α2B‐adrenoceptor (Homo sapiens, UniProt P18089); experiment: ^3H‐rauwolscine whole cell competition binding, CHO‐α2B cells; conditions: for IC50 (log) α2B: printed as log IC50 bound (negative) in the Log KD α2B column, 3H-rauwolscine
T3 sequence (P18089 1-450): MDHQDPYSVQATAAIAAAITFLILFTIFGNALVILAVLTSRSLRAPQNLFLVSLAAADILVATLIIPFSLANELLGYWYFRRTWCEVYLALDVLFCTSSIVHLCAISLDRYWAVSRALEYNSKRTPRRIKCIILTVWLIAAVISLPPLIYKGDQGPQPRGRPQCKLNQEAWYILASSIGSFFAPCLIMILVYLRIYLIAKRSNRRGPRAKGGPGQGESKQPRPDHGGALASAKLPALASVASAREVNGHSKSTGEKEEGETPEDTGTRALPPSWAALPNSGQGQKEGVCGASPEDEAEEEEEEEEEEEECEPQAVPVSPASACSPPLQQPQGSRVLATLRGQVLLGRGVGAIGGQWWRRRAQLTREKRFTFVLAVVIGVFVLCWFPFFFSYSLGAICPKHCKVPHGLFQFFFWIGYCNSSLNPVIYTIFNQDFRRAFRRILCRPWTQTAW

[1] = fold, higher affinity at α2A than α2B, 1 = no selectivity
[2] = given as log KD (negative values), 3H-rauwolscine whole cell binding, CHO cells, mean ± s.e.mean
[3] = fold, higher affinity at α2C than α2A, 1 = no selectivity
[4] = fold, higher affinity at α2C than α2B, 1 = no selectivity
[5] = log KD (negative), apparent KD: maximum concentration inhibited most but not all specific binding, IC50 from extrapolated curve

Chain of human β1‐adrenoceptor (P08588 whole entry): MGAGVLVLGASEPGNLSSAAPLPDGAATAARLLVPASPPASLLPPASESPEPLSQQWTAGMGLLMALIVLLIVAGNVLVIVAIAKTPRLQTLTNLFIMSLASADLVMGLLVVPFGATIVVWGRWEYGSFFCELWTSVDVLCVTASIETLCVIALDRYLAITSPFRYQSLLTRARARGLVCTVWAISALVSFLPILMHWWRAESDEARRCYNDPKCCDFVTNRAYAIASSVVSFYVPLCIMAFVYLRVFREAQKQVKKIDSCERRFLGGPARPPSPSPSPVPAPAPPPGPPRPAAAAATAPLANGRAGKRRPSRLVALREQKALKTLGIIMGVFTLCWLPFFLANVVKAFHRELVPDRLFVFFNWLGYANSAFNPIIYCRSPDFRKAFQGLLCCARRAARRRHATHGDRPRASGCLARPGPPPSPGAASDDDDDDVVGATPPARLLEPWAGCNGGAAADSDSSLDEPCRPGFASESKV
Chain of human β2‐adrenoceptor (P07550 whole entry): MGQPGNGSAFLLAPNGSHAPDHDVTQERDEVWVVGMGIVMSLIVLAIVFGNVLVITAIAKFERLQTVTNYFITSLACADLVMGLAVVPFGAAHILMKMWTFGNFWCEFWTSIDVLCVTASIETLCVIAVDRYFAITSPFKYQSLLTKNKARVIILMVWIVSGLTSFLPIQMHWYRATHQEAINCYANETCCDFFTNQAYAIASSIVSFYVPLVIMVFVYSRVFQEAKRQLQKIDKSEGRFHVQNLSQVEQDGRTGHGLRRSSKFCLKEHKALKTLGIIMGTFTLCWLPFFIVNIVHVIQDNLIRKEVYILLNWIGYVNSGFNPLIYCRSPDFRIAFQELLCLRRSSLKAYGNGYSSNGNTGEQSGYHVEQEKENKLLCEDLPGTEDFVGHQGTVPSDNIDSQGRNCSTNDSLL

Selectivity ratio α2A vs α2B (α2A-selective) (human α2A‐adrenoceptor; [1]): 7.1 | Log KD α2A (human α2A‐adrenoceptor; [2]): -6.79 ± 0.04 | IC50 (log) β2 (human β2‐adrenoceptor): IC50>-5 | Selectivity ratio α2A vs α2C (α2C-selective) (human α2C‐adrenoceptor; [3]): 5.1 | Selectivity ratio α2B vs α2C (α2C-selective) (human α2C‐adrenoceptor; [4]): 36.3 | Log KD α2C (human α2C‐adrenoceptor; [2]): -7.50 ± 0.02 | IC50 (log) β1 (human β1‐adrenoceptor): IC50>-5 | Log KD α2B (human α2B‐adrenoceptor; [2]): -5.94 ± 0.09
SMILES: COc1ccccc1N1CCN(CC2CN3C(=O)N(C)c4ccccc4C3=N2)CC1 (centres unmarked) [2-MPMDQ]

Selectivity ratio α2A vs α2B (α2A-selective) (human α2A‐adrenoceptor; [1]): 4.9 | Log KD α2A (human α2A‐adrenoceptor; [2]): -6.83 ± 0.05 | IC50 (log) β2 (human β2‐adrenoceptor): IC50>-4 | Selectivity ratio α2A vs α2C (α2C-selective) (human α2C‐adrenoceptor; [3]): 1.7 | Selectivity ratio α2B vs α2C (α2C-selective) (human α2C‐adrenoceptor; [4]): 8.5 | Log KD α2C (human α2C‐adrenoceptor; [2]): -7.07 ± 0.02 | Log KD β1 (human β1‐adrenoceptor; given as log KD (negative values), 3H-CGP12177 whole cell binding, CHO cells, mean ± s.e.mean): No binding to -4 | Log KD α2B (human α2B‐adrenoceptor; [2]): -6.14 ± 0.08
SMILES: O=C1Nc2ccccc2C2=NC(CN3CCN(c4ccccc4)CC3)CN12 (centres unmarked) [2-PMDQ]

IC50 (human β2‐adrenoceptor): > 100 µM
SMILES: COC(=O)C1=C(C)NC(C)=C(C(=O)OCCCN2CCC(c3ccccc3)(c3ccccc3)CC2)[C@H]1c1cccc([N+](=O)[O-])c1 [2‐niguldipine]

SMILES: COc1ccccc1N1CCN(CCCNc2c(C)c(=O)n(C)c(=O)n2C)CC1 [5-methyl-urapidil]
Log KD α2A (human α2A‐adrenoceptor; [2]): -5.18 ± 0.05 | Log KD β2 (human β2‐adrenoceptor): -5.00 ± 0.07 | Log KD α2C (human α2C‐adrenoceptor; [2]): -5.81 ± 0.07 | Log KD α2B (human α2B‐adrenoceptor; [2]): -5.17 ± 0.05

SMILES: COc1ccccc1N1CCN(CCCNc2c(C)c(=O)n(C)c(=O)n2C)CC1 [5‐methyl‐urapidil]
Log KD α2A (human α2A‐adrenoceptor): −5.18 ± 0.05 | Log KD β2 (human β2‐adrenoceptor): −5.00 ± 0.07 | Log KD α2C (human α2C‐adrenoceptor): −5.81 ± 0.07 | Log KD α2B (human α2B‐adrenoceptor): −5.17 ± 0.05

Log KD α2A (human α2A‐adrenoceptor; [2]): -5.99 ± 0.06 | IC50 (log) β2 (human β2‐adrenoceptor): IC50>-5 | Selectivity ratio α2A vs α2C (α2C-selective) (human α2C‐adrenoceptor; [3]): 18.2 | Log KD α2C (human α2C‐adrenoceptor; [2]): -7.25 ± 0.14 | IC50 (log) β1 (human β1‐adrenoceptor): IC50>-5 | Selectivity ratio α2A vs α2B (α2B-selective column) (human α2B‐adrenoceptor; fold, higher affinity at α2B than α2A, 1 = no selectivity): 21.4 | Selectivity ratio α2B vs α2C (α2B-selective column) (human α2B‐adrenoceptor; fold, higher affinity at α2B than α2C, 1 = no selectivity): 1.2 | Log KD α2B (human α2B‐adrenoceptor; [2]): -7.32 ± 0.14
SMILES: COc1ccccc1N1CCN(CCN2C(=O)c3ccccc3C(C)(C)C2=O)CC1 [ARC 239]

IC50 (human α2A‐adrenoceptor): > 1000 µM | IC50 (human α2C‐adrenoceptor): > 1000 µM | Log KD α2B (human α2B‐adrenoceptor; [2]): No bind to -3 | Binding at α2B (result in words) (human α2B‐adrenoceptor; up to log concentration -3): No binding -3
SMILES: CC(C)(C)NCC(O)COc1cccc2[nH]c(=O)[nH]c12 (centres unmarked) [CGP12177]

Log KD α2A (human α2A‐adrenoceptor; [2]): -5.03 ± 0.03 | Log KD α2C (human α2C‐adrenoceptor; [2]): -5.05 ± 0.04 | IC50 (log) α2B (human α2B‐adrenoceptor): IC50>-4
SMILES: Cc1ccc(OCC(O)C(C)NC(C)C)c2c1CCC2 (centres unmarked) [ICI 118551]

SMILES: CN1CC[C@]2(CCN3CCc4c(oc5ccccc45)[C@@H]3C2)N(C)C1=O [MK-912]
Log KD α2A (human α2A‐adrenoceptor): -8.71 ± 0.05 | Selectivity ratio α2A vs α2B (α2A-selective) (human α2A‐adrenoceptor): 3.6 | IC50 (log) β2 (human β2‐adrenoceptor): IC50>-4 | Log KD α2C (human α2C‐adrenoceptor): -9.82 ± 0.11 | Selectivity ratio α2A vs α2C (α2C-selective) (human α2C‐adrenoceptor): 12.9 | Selectivity ratio α2B vs α2C (α2C-selective) (human α2C‐adrenoceptor): 45.7 | IC50 (log) β1 (human β1‐adrenoceptor): IC50>-4 | Log KD α2B (human α2B‐adrenoceptor; [2]): -8.16 ± 0.10

SMILES: CC(C)(Cc1c[nH]c2ccc(Cl)cc12)NCCOc1ccccc1OCC1CC1 [RS17053]
Log KD α2A (human α2A‐adrenoceptor): −6.20 ± 0.11 | Selectivity ratio α2A vs α2B (higher affinity for α2A) (human α2A‐adrenoceptor; ratio of KD values): 3.5 | Log KD β2 (human β2‐adrenoceptor): −6.42 ± 0.06 | Log KD α2C (human α2C‐adrenoceptor): −6.35 ± 0.08 | Selectivity ratio α2A vs α2C (higher affinity for α2C) (human α2C‐adrenoceptor; ratio of KD values): 1.4 | Selectivity ratio α2B vs α2C (higher affinity for α2C) (human α2C‐adrenoceptor; ratio of KD values): 5.0 | Log KD β1 (human β1‐adrenoceptor): −5.44 ± 0.04 | Log KD α2B (human α2B‐adrenoceptor): −5.65 ± 0.07

Log KD α2A, apparent affinity (app) (human α2A‐adrenoceptor; [5]): -5.53 ± 0.12^app | IC50 (log) β2 (human β2‐adrenoceptor): IC50>-4 | Selectivity ratio α2A vs α2C (α2C-selective) (human α2C‐adrenoceptor; [3]): 10.7 | Log KD α2C (human α2C‐adrenoceptor; [2]): -6.56 ± 0.13 | IC50 (log) β1 (human β1‐adrenoceptor): IC50>-4 | IC50 (log) α2B (human α2B‐adrenoceptor): IC50>-4.5
SMILES: COc1cc2nc(N3CCN(C(=O)COc4c(OC)cccc4C(C)C)CC3)nc(N)c2cc1OC [Rec15-2615]

SMILES: CC(C)(C)NC[C@H](O)COc1cccc2[nH]c(C#N)cc12 [S-cyanopindolol]
Log KD α2A (human α2A‐adrenoceptor; [2]): -5.56 ± 0.10 | Log KD α2C (human α2C‐adrenoceptor; [2]): -6.15 ± 0.07 | Log KD α2B, apparent affinity (app) (human α2B‐adrenoceptor; [5]): -4.82 ± 0.10^app
